Data taken from ChEMBL document CHEMBL1122748, “Synthesis and evaluation of substituted 2-phenylcyclobutylamines as analogues of hallucinogenic phenethylamines: lack of LSD-like biological activity” (1984).

What was measured:
Format in all cases: functional
Rattus norvegicus [1] = experiment: Effective dose to cause hallucinogenic activity in rats using drug discrimination assay by intraperitoneal administration; conditions: ip
Rattus norvegicus [2] = experiment: Compound was evaluated for mean % LSD correct responses at a dos e of 10 mg/kg in rats using drug discrimination assay
Rattus norvegicus [3] = experiment: Compound was evaluated for mean % LSD correct responses at a dos e of 0.75 mg/kg in rats using drug discrimination assay
Rattus norvegicus [4] = experiment: Compound was evaluated for mean % LSD correct responses at a dos e of 15 mg/kg in rats using drug discrimination assay

Structure (SMILES)	ED50 (Rattus norvegicus [1])	also measured
CCN(CC)C(=O)[C@@H]1C=C2c3cccc4[nH]cc(c34)C[C@H]2N(C)C1.O=C(O)C(O)C(O)C(=O)O	0.08 mg/kg	
COc1cc(OC)c(C2CC[C@@H]2N)cc1OC (stereo partly drawn)		LSD (Rattus norvegicus [2]): 44%
COc1cc(C2CC[C@@H]2N)c(OC)cc1C (stereo partly drawn)		LSD (Rattus norvegicus [2]): 53%
COc1cc(C2CC2N)c(OC)cc1C.Cl (stereo not drawn)	20 mg/kg	
COc1cc(C2CC2N)c(OC)cc1C (stereo not drawn)	0.163 mg/kg	LSD (Rattus norvegicus [3]): 93%
COc1cc(OC)c(C2CC[C@H]2N)cc1OC (stereo partly drawn)		LSD (Rattus norvegicus [4]): 28%
CCN(CC)C(=O)[C@@H]1C=C2c3cccc4[nH]cc(c34)C[C@H]2N(C)C1 [LYSERGIDE]	0.0077 mg/kg	
